From ChEMBL document CHEMBL1145468, “Serum differentially alters the antifungal properties of echinocandin drugs” (Antimicrob Agents Chemother, 2007)
Converted amounts (≈) assume the structure as drawn. *1 amine or outer side, *2 acyl side, *3 side chain or, on linkers, in order; H or OH if unused. Where a SMILES comes first, the peptide text is derived from it. Bridges are numbered along the chain shown (N, C = ends). [ ]: non-standard residue; d: D form. The star is where a group is joined. hTyr(3S-OH,4S-OH,3'-OSO3H) = N[C@H](C(=O)O)[C@H](O)[C@@H](O)c1ccc(O)c(OS(=O)(=O)O)c1; pTerphenylCO(4''-OnC5H11) = CCCCCOc1ccc(-c2ccc(-c3ccc(C(=O)*)cc3)cc2)cc1; Orn(4R-OH,5R-OH) = O=C([C@H](C[C@@H](O)[C@@H](O)N[*:3])N[*:1])[*:2]; hTyr(3S-OH,4S-OH) = N[C@H](C(=O)O)[C@H](O)[C@@H](O)c1ccc(O)cc1; Pro(3S-OH,4S-Me) = C[C@H]1CN[C@H](C(=O)O)[C@H]1O; X1 = CCCCCOc1ccc(-c2cc(-c3ccc(C(=O)*)cc3)no2)cc1; Gln(3R-OH) = NC(=O)C[C@@H](O)[C@H](N)C(=O)O; Hyp = O=C(O)[C@@H]1C[C@@H](O)CN1

Key:
Aspergillus terreus = experiment: Ratio of MIC for Aspergillus flavus to MIC for Aspergillus terreus in presence of 50% human serum; assay type: functional
Candida albicans [1] = experiment: Ratio of MIC for Candida albicans to MIC for Candida albicans in presence of 50% human serum; assay type: functional
Nakaseomyces glabratus = experiment: Ratio of MIC for Candida glabrata to MIC for Candida glabrata in presence of 50% mouse serum; assay type: functional
Pichia kudriavzevii = experiment: Ratio of MIC for Candida krusei to MIC for Candida krusei in presence of 50% human serum; assay type: functional
Candida parapsilosis = experiment: Ratio of MIC for Candida parapsilosis to MIC for Candida parapsilosis in presence of 50% human serum; assay type: functional
Candida tropicalis = experiment: Ratio of MIC for Candida tropicalis to MIC for Candida tropicalis in presence of 50% human serum; assay type: functional
Glucan synthase [2] = target: T1, Glucan synthase (Candida albicans, UniProt O13423); experiment: Inhibition of glucan synthase in Candida albicans 36082 assessed as incorporation of [3H]uridine diphosphoglucose
Glucan synthase [3] = target: T1, Glucan synthase; experiment: Inhibition of glucan synthase in Candida albicans 36082 assessed as incorporation of [3H]uridine diphosphoglucose in presence of 10% serum
Glucan synthase [4] = target: T1, Glucan synthase; experiment: Inhibition of glucan synthase in Candida albicans 36082 assessed as incorporation of [3H]uridine diphosphoglucose in presence of 20% serum
Glucan synthase [5] = target: T1, Glucan synthase; experiment: Inhibition of glucan synthase in Candida albicans 36082 assessed as incorporation of [3H]uridine diphosphoglucose in presence of 50% serum
Candida albicans [6] = experiment: Antifungal activity against Candida albicans 36082 infected BALB/c mouse assessed as fungal kidney burden after 14 days; assay type: functional; settings: 336 h
[7] = Inhibition of glucan synthase in Aspergillus fumigatus R21
[8] = Inhibition of glucan synthase in Aspergillus fumigatus R21 in presence of 10% human serum
[9] = Inhibition of glucan synthase in Aspergillus fumigatus R21 in presence of 20% human serum
[10] = Inhibition of glucan synthase in Aspergillus fumigatus R21 in presence of 50% human serum
[11] = Inhibition of glucan synthase in Aspergillus fumigatus MF5668
[12] = Inhibition of glucan synthase in Aspergillus fumigatus MF5668 in presence of 10% human serum
[13] = Inhibition of glucan synthase in Aspergillus fumigatus MF5668 in presence of 20% human serum
[14] = Inhibition of glucan synthase in Aspergillus fumigatus MF5668 in presence of 50% human serum
[15] = Inhibition of glucan synthase in Aspergillus fumigatus ATCC 13073
[16] = Inhibition of glucan synthase in Aspergillus fumigatus ATCC 13073 in presence of 10% human serum
[17] = Inhibition of glucan synthase in Aspergillus fumigatus ATCC 13073 in presence of 20% human serum
Glucan synthase [18] = target: T1, Glucan synthase; experiment: Inhibition of glucan synthase in Candida albicans ATCC 90028
Glucan synthase [19] = target: T1, Glucan synthase; experiment: Inhibition of glucan synthase in Candida albicans ATCC 90028 in presence of 10% human serum
Glucan synthase [20] = target: T1, Glucan synthase; experiment: Inhibition of glucan synthase in Candida albicans ATCC 90028 in presence of 20% human serum
Glucan synthase [21] = target: T1, Glucan synthase; experiment: Inhibition of glucan synthase in Candida albicans ATCC 90028 in presence of 50% human serum
Glucan synthase [22] = target: T1, Glucan synthase; experiment: Inhibition of glucan synthase in Candida albicans ATCC 36082
Glucan synthase [23] = target: T1, Glucan synthase; experiment: Inhibition of glucan synthase in Candida albicans ATCC 36082 in presence of 10% human serum
Glucan synthase [24] = target: T1, Glucan synthase; experiment: Inhibition of glucan synthase in Candida albicans ATCC 36082 in presence of 20% human serum
Glucan synthase [25] = target: T1, Glucan synthase; experiment: Inhibition of glucan synthase in Candida albicans SC5314
Glucan synthase [26] = target: T1, Glucan synthase; experiment: Inhibition of glucan synthase in Candida albicans SC5314 in presence of 10% human serum
Glucan synthase [27] = target: T1, Glucan synthase; experiment: Inhibition of glucan synthase in Candida albicans SC5314 in presence of 20% human serum
Glucan synthase [28] = target: T1, Glucan synthase; experiment: Inhibition of glucan synthase in Candida albicans SC5314 in presence of 50% human serum
Aspergillus fumigatus = experiment: Ratio of MIC for Aspergillus fumigatus to MIC for Aspergillus fumigatus in presence of 50% human serum; assay type: functional
Aspergillus flavus = experiment: Ratio of MIC for Aspergillus flavus to MIC for Aspergillus flavus in presence of 50% human serum; assay type: functional
Aspergillus niger = experiment: Ratio of MIC for Aspergillus flavus to MIC for Aspergillus niger in presence of 50% human serum; assay type: functional
[29] = Inhibition of glucan synthase in Aspergillus fumigatus ATCC 13073 in presence of 50% human serum
Glucan synthase [30] = target: T1, Glucan synthase; experiment: Inhibition of glucan synthase in Candida albicans ATCC 36082 in presence of 50% human serum

T1 sequence (O13423 whole entry): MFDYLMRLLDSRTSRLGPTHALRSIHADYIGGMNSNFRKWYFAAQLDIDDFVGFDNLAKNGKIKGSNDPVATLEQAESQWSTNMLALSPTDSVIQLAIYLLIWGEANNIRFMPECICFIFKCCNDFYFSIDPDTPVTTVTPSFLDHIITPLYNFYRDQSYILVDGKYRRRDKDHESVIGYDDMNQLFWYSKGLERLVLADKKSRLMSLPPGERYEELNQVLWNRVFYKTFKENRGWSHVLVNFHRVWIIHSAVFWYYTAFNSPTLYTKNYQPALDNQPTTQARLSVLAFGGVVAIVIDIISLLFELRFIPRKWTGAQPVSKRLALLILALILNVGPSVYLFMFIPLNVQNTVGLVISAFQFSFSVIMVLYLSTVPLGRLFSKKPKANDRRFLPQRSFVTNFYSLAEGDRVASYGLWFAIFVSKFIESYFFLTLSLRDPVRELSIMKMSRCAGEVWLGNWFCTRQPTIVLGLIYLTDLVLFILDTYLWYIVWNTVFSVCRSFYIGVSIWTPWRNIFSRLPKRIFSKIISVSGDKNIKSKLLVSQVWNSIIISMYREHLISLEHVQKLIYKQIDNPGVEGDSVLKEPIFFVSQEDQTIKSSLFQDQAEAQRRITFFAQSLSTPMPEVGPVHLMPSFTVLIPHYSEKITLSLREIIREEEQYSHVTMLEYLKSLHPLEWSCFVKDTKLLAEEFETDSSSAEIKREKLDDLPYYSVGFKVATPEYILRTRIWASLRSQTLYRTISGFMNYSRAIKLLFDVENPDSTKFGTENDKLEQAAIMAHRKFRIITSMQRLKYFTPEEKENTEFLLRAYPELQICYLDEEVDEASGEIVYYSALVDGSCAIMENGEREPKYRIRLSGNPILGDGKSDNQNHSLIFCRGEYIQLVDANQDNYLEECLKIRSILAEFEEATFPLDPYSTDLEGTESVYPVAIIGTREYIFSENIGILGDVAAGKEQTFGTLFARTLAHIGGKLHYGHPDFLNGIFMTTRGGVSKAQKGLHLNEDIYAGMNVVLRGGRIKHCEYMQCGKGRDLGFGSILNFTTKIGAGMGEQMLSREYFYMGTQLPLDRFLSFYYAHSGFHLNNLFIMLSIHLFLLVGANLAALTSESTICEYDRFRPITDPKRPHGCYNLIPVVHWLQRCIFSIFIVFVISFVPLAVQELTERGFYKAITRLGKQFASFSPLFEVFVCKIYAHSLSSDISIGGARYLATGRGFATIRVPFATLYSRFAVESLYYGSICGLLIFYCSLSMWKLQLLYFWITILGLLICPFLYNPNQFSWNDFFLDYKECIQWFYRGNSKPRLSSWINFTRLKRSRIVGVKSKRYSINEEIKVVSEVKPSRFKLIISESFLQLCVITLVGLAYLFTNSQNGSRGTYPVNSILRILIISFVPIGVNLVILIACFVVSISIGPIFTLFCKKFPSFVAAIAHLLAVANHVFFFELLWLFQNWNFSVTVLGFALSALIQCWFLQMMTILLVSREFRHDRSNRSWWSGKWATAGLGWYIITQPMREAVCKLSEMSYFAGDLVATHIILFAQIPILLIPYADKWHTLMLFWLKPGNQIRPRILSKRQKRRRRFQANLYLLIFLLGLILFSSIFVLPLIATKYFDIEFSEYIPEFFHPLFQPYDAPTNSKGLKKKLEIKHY

Row | Compound | Ratio (Aspergillus terreus) | Ratio (Candida albicans [1]) | Ratio (Nakaseomyces glabratus) | Ratio (Pichia kudriavzevii) | Ratio (Candida parapsilosis) | Ratio (Candida tropicalis) | ED90 (Candida albicans [6]) | ED99 (Candida albicans [6]) | IC50 [7] | IC50 [8] | IC50 [9] | IC50 [10] | IC50 [11] | IC50 [12] | IC50 [13] | IC50 [14] | IC50 [15] | IC50 [16] | IC50 [17] | IC50 (Glucan synthase [18]) | other results
1 | CCCCCOc1ccc(-c2ccc(-c3ccc(C(=O)N[C@H]4C[C@@H](O)[C@@H](O)NC(=O)[C@@H]5[C@@H](O)[C@@H](C)CN5C(=O)[C@H]([C@@H](C)O)NC(=O)[C@H]([C@H](O)[C@@H](O)c5ccc(O)cc5)NC(=O)[C@@H]5C[C@@H](O)CN5C(=O)[C@H]([C@@H](C)O)NC4=O)cc3)cc2)cc1 [ANIDULAFUNGIN] ({pTerphenylCO(4''-OnC5H11)}-[Orn(4R-OH,5R-OH)]T[Hyp][hTyr(3S-OH,4S-OH)]T[Pro(3S-OH,4S-Me)]; lactam 1-C) | 16 | 16 | 64 | 32 | 8 | 128 | 1.17 mg/kg | 1.36 mg/kg | 0.75 ng/mL (≈ 0.658 nM) | 1.9 ng/mL | 3.1 ng/mL | 11.9 ng/mL | 0.29 ng/mL (≈ 0.254 nM) | 5.5 ng/mL | 6.9 ng/mL | 28.1 ng/mL | 13.3 ng/mL (≈ 11.7 nM) | 21.4 ng/mL | 77.4 ng/mL | 0.877 nM | IC50 (Glucan synthase [2]): 0.88 nM; IC50 (Glucan synthase [3]): 4.14 nM; IC50 (Glucan synthase [4]): 16.4 nM; IC50 (Glucan synthase [5]): 25.8 nM; IC50 (Glucan synthase [19]): 4.14 nM; IC50 (Glucan synthase [20]): 16.3 nM; IC50 (Glucan synthase [21]): 21.7 nM; IC50 (Glucan synthase [22]): 16.2 nM; IC50 (Glucan synthase [23]): 21 nM; IC50 (Glucan synthase [24]): 62.7 nM; IC50 (Glucan synthase [25]): 15 nM; IC50 (Glucan synthase [26]): 13.4 nM; IC50 (Glucan synthase [27]): 65.5 nM; IC50 (Glucan synthase [28]): 78.1 nM; Ratio (Aspergillus fumigatus): 32; Ratio (Aspergillus flavus): 32; Ratio (Aspergillus niger): 32
2 | CC[C@H](C)C[C@H](C)CCCCCCCCC(=O)N[C@H]1C[C@@H](O)[C@@H](NCCN)NC(=O)[C@@H]2[C@@H](O)CCN2C(=O)[C@H]([C@H](O)CCN)NC(=O)[C@H]([C@H](O)[C@@H](O)c2ccc(O)cc2)NC(=O)[C@@H]2C[C@@H](O)CN2C(=O)[C@H]([C@@H](C)O)NC1=O [CASPOFUNGIN] | 4 | 2 | 4 | 8 | 4 | 4 | 1.05 mg/kg | 1.1 mg/kg | 1.6 ng/mL (≈ 1.46 nM) | 2.7 ng/mL | 3.6 ng/mL | 10.3 ng/mL | 1.1 ng/mL (≈ 1.01 nM) | 1 ng/mL | 3.2 ng/mL | 4.8 ng/mL | 2 ng/mL (≈ 1.83 nM) | 2.8 ng/mL | 5.9 ng/mL | 0.274 nM | IC50 (Glucan synthase [2]): 0.302 nM; IC50 (Glucan synthase [3]): 1.21 nM; IC50 (Glucan synthase [4]): 1.9 nM; IC50 (Glucan synthase [5]): 5.69 nM; IC50 [29]: 9.4 ng/mL; IC50 (Glucan synthase [19]): 1.19 nM; IC50 (Glucan synthase [20]): 1.92 nM; IC50 (Glucan synthase [21]): 5.76 nM; IC50 (Glucan synthase [22]): 0.823 nM; IC50 (Glucan synthase [23]): 2.56 nM; IC50 (Glucan synthase [24]): 4.85 nM; IC50 (Glucan synthase [30]): 7.96 nM; IC50 (Glucan synthase [25]): 13.4 nM; IC50 (Glucan synthase [26]): 24.7 nM; IC50 (Glucan synthase [27]): 33.8 nM; IC50 (Glucan synthase [28]): 73.6 nM; Ratio (Aspergillus fumigatus): 11; Ratio (Aspergillus flavus): 8; Ratio (Aspergillus niger): 8
3 | CCCCCOc1ccc(-c2cc(-c3ccc(C(=O)N[C@H]4C[C@@H](O)[C@@H](O)NC(=O)[C@@H]5[C@@H](O)[C@@H](C)CN5C(=O)[C@H]([C@H](O)CC(N)=O)NC(=O)[C@H]([C@H](O)[C@@H](O)c5ccc(O)c(OS(=O)(=O)O)c5)NC(=O)[C@@H]5C[C@@H](O)CN5C(=O)[C@H]([C@@H](C)O)NC4=O)cc3)no2)cc1 [MICAFUNGIN] (X1-[Orn(4R-OH,5R-OH)]T[Hyp][hTyr(3S-OH,4S-OH,3'-OSO3H)][Gln(3R-OH)][Pro(3S-OH,4S-Me)]; lactam 1-C) | 32 | 64 | 64 | 133 | 8 | 128 | 1.97 mg/kg | 3.71 mg/kg | 3.7 ng/mL (≈ 2.91 nM) | 6.2 ng/mL | 10.3 ng/mL | 23.2 ng/mL | 2.2 ng/mL (≈ 1.73 nM) | 3.2 ng/mL | 3.3 ng/mL | 7.6 ng/mL | 2 ng/mL (≈ 1.57 nM) | 4.7 ng/mL | 7.5 ng/mL | 14.2 nM | IC50 [29]: 9.8 ng/mL; IC50 (Glucan synthase [19]): 22.4 nM; IC50 (Glucan synthase [20]): 39.4 nM; IC50 (Glucan synthase [21]): 71 nM; IC50 (Glucan synthase [22]): 8.5 nM; IC50 (Glucan synthase [23]): 18.7 nM; IC50 (Glucan synthase [24]): 24.7 nM; IC50 (Glucan synthase [30]): 44.9 nM; IC50 (Glucan synthase [25]): 21.2 nM; IC50 (Glucan synthase [26]): 25.7 nM; IC50 (Glucan synthase [27]): 39.8 nM; IC50 (Glucan synthase [28]): 70.6 nM; Ratio (Aspergillus fumigatus): 64; Ratio (Aspergillus flavus): 33; Ratio (Aspergillus niger): 133
